How the values were obtained:
Format in all cases: cell-based
[1] = test system: normal human mononuclear cells; assay: PHA mitogen-stimulated cell proliferation; design: key: NE: No effect; INHIB: Inhibition; STIM: Stimulation; IC40: 40% Inhibitory Concentration; EC50: 50% Effective Concentration; TC: Tolerated Concentration; IA: Interferes with Assay
Protocol: The purpose of this procedure is to determine the effect of test compounds on Mixed Lymphocyte Reaction and Mitogen-Induced Proliferation of normal human mononuclear cells.
(§1) Procedure for Cell Proliferation: Peripheral blood mononuclear cells (PBMNC) are added to a 96-well cell culture plate. Compounds are tested at four dilutions, in quadruplicates, over a range of three log10 concentrations along with negative an inhibitory controls. The test compounds are incubated with the cells for one hour, phytohemagglutinin (PHA) is then added to all reactive test wells and the cultures are incubated for three days. The cultures are then pulsed with ^3 H incorporation is then determined with a Wallac Betaplate counter.
as §1, with “incubated with,” for “incubated with”, “for thee” for “for three”

TNFα = TNFα production from purified human monocytes; design: key to EFFECT on TNFα: NE: No effect; INHIB: Inhibition; STIM: Stimulation; IC40: 40% Inhibitory Concentration; EC50: 50% Effective Concentration; TC: Tolerated Concentration; IA: Interferes with Assay
Protocol: (§2) This assay determines the effect of test compounds on the production of TNFα from purified human monocytes. Compounds are tested for their ability to downregulate the production of TNFα in activated monocytes, or upregulate secretion of TNFα in unstimulated monocytes. Test compounds are incubated for sixteen hours with purified human monocytes at four dilutions over a range of three log10 concentrations. Where appropriate, lipopolysaccharide (LPS) is used to stimulate the monocytes.
(§3) The level of TNFα in the resultant supernatants is quantitated in a solid phase Enzyme-linked Immunoassay (EIA) performed in a 96 well format. TNFα present in the samples is captured by a specific monoclonal antibody immobilized on the well, and detected with an anti-TNFα polyclonal antibody conjugated to horse radish peroxidase, followed by an appropriate substrate. The levels of TNFα are determined by interpolation of the resultant color change in the substrate from a standard curve. All supernatants are tested in duplicate with controls and standards.
as §2, with “production of TNF from purified” for “production of TNFα from purified”, “incubated for sixteeen hours with” for “incubated for sixteen hours with”

IL-8 = IL-8 secretion from purified human monocytes; design: key: NE: No effect; INHIB: Inhibition; STIM: Stimulation; IC40: 40% Inhibitory Concentration; EC50: 50% Effective Concentration; TC: Tolerated Concentration; IA: Interferes with Assay
Protocol: This assay determines the effect of test compounds on the secretion of IL-8 from purified human monocytes. Compounds are tested for their ability to downregulate the production of IL-8 in activated monocytes, or upregulate secretion of IL-8 in unstimulated monocytes. Test compounds are incubated for sixteen hours with purified human monocytes at four dilutions over a range of three log10 concentrations. Where appropriate, lipopolysaccharide (LPS) is used to stimulate the monocytes.
as §3, with “IL-8” for “TNFα”, “probed” for “detected”, “anti-IL-8” for “anti-TNFα”, “horseradish” for “horse radish”

purified human monocytes = assay: Chemotactic response of purified human monocytes; design: key: NE: No effect; INHIB: Inhibition; STIM: Stimulation; IC40: 40% Inhibitory Concentration; EC50: 50% Effective Concentration; TC: Tolerated Concentration; IA: Interferes with Assay; details: STIMULATED
Protocol: This assay measures the ability of test compounds to modulate the chemotactic response of purified human monocytes in response to a chemoattractant. Compounds are tested at four dilutions over a range of three log10 concentrations. The test compounds are combined with monocytes labeled with a fluorescent indicator and placed in the top wells of a chemotaxis chamber, above an optimized concentration of a monocyte chemoattractant placed in the wells below, and separated by a microporous filter. After sixty minutes, the migration of cells through the filter is quantified flurorometrically, and expressed in relation to spontaneous and maximum controls. All tests are carried out in triplicate.

PGE2 = PGE2 production by purified human monocytes; design: key to EFFECT on PGE2: NE: No effect; INHIB: Inhibition; STIM: Stimulation; IC40: 40% Inhibitory Concentration; EC50: 50% Effective Concentration; TC: Tolerated Concentration; IA: Interferes with Assay
Protocol: This procedure measures the ability of test compounds to modulate the amount of PGE2 produced by purified human monocytes. Compounds are tested for their ability to downregulate the secretion of PGE2 from activated monocytes, or upregulate secretion of PGE2 from unstimulated monocytes. Test compounds are incubated for ninety minutes with purified human monocytes at four dilutions over a range of three log10 concentrations. Where appropriate, zymosan is used to stimulate the monocytes.
The level of PGE2 in the resultant supernatants is quantitated by immunoassay performed in a 96 well format. PGE2 levels modulated by unknown compounds are determined by interpolation from a standard curve. All compounds are tested in duplicate with controls and standards.

CCCCCCCCCCCCCC/C=C\CC[C@@H]1OC(=O)C(O)=C1O [(S)-3,4-Dihydroxy-5-[(Z)-3-octadecenyl]-2(5H)-furanone]
EFFECT on PHA [1]: NE | EC50 (TNFα; Homo sapiens, Monocyte, STIMULATED, STIM): 38 µM | EFFECT on TNFα (TNFα; STIMULATED): STIM | EFFECT on TNFα (TNFα; UNSTIMULATED): NE | EFFECT on IL8 (IL-8; STIMULATED): NE | EFFECT on IL8 (IL-8; UNSTIMULATED): NE | EFFECT on CHEMOTAXIS (purified human monocytes): NE | EC50 (PGE2; Homo sapiens, Monocyte, STIMULATED, INHIB): 2 µM | EFFECT on PGE2 (PGE2; STIMULATED): INHIB | EFFECT on PGE2 (PGE2; UNSTIMULATED): NE
